{
  "source": "ChEMBL document CHEMBL1149511",
  "about": "“Tri-substituted triazoles as potent non-nucleoside inhibitors of the HIV-1 reverse transcriptase” (Bioorg Med Chem Lett, 2006)",
  "assay_type_in_all_cases": "functional, cell-based",
  "key": {"HeLa [1]": {"tested_on": "HeLa", "assay": "Antiviral activity against HIV1 Y188L mutant in HeLa-JC53 cells"}, "HeLa [2]": {"tested_on": "HeLa", "assay": "Antiviral activity against wild type HIV1 in HeLa-JC53 cells", "details": "Homo sapiens"}, "HeLa [3]": {"tested_on": "HeLa", "assay": "Cytotoxicity against human HeLa-JC53 cells"}, "HeLa [4]": {"tested_on": "HeLa", "assay": "Antiviral activity against HIV1 K103N-Y181C mutant in HeLa-JC53 cells"}},
  "data": [
    {"smiles": "Cc1ccc2c(C)cc(C)c(-n3c(SCC(=O)Nc4ccc(S(N)(=O)=O)cc4Cl)nnc3C(F)(F)F)c2n1", "values": [
      {"measurement": "EC50", "setting": "HeLa [1]", "value": 4, "unit": "nM"},
      {"measurement": "EC50", "setting": "HeLa [2]", "value": 1, "unit": "nM"},
      {"measurement": "Activity", "setting": "HeLa [3]", "value": "Not toxic"}
    ]},
    {"smiles": "Cc1cc(C)c2ccccc2c1-n1c(C)nnc1SCC(=O)Nc1ccc(S(N)(=O)=O)cc1Cl", "values": [
      {"measurement": "EC50", "setting": "HeLa [1]", "value": 4, "unit": "nM"},
      {"measurement": "EC50", "setting": "HeLa [2]", "value": 0.1, "unit": "nM"},
      {"measurement": "Activity", "setting": "HeLa [3]", "value": "Not toxic"}
    ]},
    {"smiles": "CN(C)c1ccc(-n2c(SCC(=O)Nc3ccc(S(N)(=O)=O)cc3Cl)nnc2C(F)(F)F)c2ccccc12", "values": [
      {"measurement": "EC50", "setting": "HeLa [1]", "value": 7, "unit": "nM"},
      {"measurement": "EC50", "setting": "HeLa [2]", "value": 2, "unit": "nM"},
      {"measurement": "Activity", "setting": "HeLa [3]", "value": "Not toxic"}
    ]},
    {"smiles": "Cc1cc(C)c2ccccc2c1-n1c(C)nnc1SCC(=O)Nc1ccccc1Br", "values": [
      {"measurement": "EC50", "setting": "HeLa [1]", "value": 89, "unit": "nM"},
      {"measurement": "EC50", "setting": "HeLa [2]", "value": 1, "unit": "nM"},
      {"measurement": "EC50", "setting": "HeLa [4]", "value": 70, "unit": "nM"}
    ]},
    {"smiles": "Cc1ccc(NC(=O)CSc2nnc(C)n2-c2ccc(Cl)c3ccccc23)c(Cl)c1", "values": [
      {"measurement": "EC50", "setting": "HeLa [1]", "value": 320, "unit": "nM"},
      {"measurement": "EC50", "setting": "HeLa [2]", "value": 1, "unit": "nM"},
      {"measurement": "EC50", "setting": "HeLa [4]", "value": 190, "unit": "nM"}
    ]},
    {"smiles": "Cc1ccc2c(C)ccc(-n3c(C)nnc3SCC(=O)Nc3ccc(S(N)(=O)=O)cc3Cl)c2c1", "values": [
      {"measurement": "EC50", "setting": "HeLa [1]", "value": 6, "unit": "nM"},
      {"measurement": "EC50", "setting": "HeLa [2]", "value": 0.6, "unit": "nM"},
      {"measurement": "Activity", "setting": "HeLa [3]", "value": "Not toxic"}
    ]},
    {"smiles": "CCc1ccc(-n2c(C)nnc2SCC(=O)Nc2ccccc2Br)c2ccccc12", "values": [
      {"measurement": "EC50", "setting": "HeLa [1]", "value": 58, "unit": "nM"},
      {"measurement": "EC50", "setting": "HeLa [2]", "value": 0.5, "unit": "nM"},
      {"measurement": "EC50", "setting": "HeLa [4]", "value": 22, "unit": "nM"}
    ]}
  ]
}
